10 compounds from patent US20250059182A1, “SOS1 INHIBITORS” (Mirati Therapeutics, Inc., priority 2021, published 2025) can be followed below.

The target of assay [1] is T1, recombinant human SOS1 polypeptide (amino acids 560-1049) (Homo sapiens, UniProt Q07889).
T1 construct: corresponding to amino acids 560-1049, expressed in E. Coli; made in house; host or cells: E. coli
T1 sequence (Q07889 560-1049): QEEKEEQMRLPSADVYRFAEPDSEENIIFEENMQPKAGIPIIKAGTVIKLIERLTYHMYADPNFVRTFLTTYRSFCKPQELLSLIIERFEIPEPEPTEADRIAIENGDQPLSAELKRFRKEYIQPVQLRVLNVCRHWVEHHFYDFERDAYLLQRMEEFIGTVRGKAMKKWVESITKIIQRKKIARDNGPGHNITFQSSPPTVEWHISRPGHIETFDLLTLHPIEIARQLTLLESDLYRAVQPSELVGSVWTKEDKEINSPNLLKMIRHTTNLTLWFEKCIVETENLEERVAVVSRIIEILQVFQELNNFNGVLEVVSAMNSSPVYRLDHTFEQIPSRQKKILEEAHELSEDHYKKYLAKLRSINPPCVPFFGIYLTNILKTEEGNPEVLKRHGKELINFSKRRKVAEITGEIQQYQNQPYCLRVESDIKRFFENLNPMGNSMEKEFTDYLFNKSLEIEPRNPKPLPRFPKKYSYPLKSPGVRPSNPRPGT
The assay is described as follows: HTRF displacement assay: inhibition of labeled tracer binding to SOS1. Particulars: Table A, Morrison equation for competitive binding. (In general: In TR-FRET formats the signal depends on donor and acceptor labels being close together.)

Assay [2] relates to pERK in MKN1 cells. The assay is described as follows: pERK inhibition, In-Cell Western (LI-COR Odyssey), MKN1 cells. The conditions noted are these: Homo sapiens, MKN-1, Table B; MKN1 or H358 cells (table does not say which); 0.5-1 hour incubation; read-out: IC50 (nM), pERK inhibition. The class given is cell-based. The method in brief: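 MKN1 cells were exposed for about 0.5–1 h at 37 °C to nine 3-fold dilutions starting at 10 µM. Cells were then fixed in formaldehyde, permeabilised with methanol, and immunostained for pERK and GAPDH with near-infrared secondary antibodies. GAPDH-normalised pERK signal relative to vehicle gave % inhibition, from which IC50 was fitted.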

Regarding `Cc1nnc(N[C@H](C)c2cccc(C(F)(F)F)c2F)c2cc(N3CC4(CNC4)C3)ncc12` [Example 1-87, (R)-N-(1-(2-fluoro-3-(trifluoromethyl)phenyl)ethyl)-4-methyl-7-(2,6-diazaspiro[3.3]heptan-2-yl)pyrido[3,4-d]pyridazin-1-amine], the inhibitory constant (Ki) in assay [1] stood at 0.524 nM. Further, the IC50 in assay [2] worked out at 273 nM.
As for `CCN1CC[C@@H](N(C)c2cc3c(N[C@H](C)c4cccc(C#N)c4C)nnc(C)c3cn2)C1` [Example 1-88, 3-((R)-1-((7-(((R)-1-ethylpyrrolidin-3-yl)(methyl)amino)-4-methylpyrido[3,4-d]pyridazin-1-yl)amino)ethyl)-2-methylbenzonitrile], the Ki in assay [1] worked out at 1.37 nM. Further, in assay [2], the IC50 came to 35.5 nM.
The like results for `CCN1CC[C@H](N(C)c2cc3c(N[C@H](C)c4cccc(C#N)c4C)nnc(C)c3cn2)C1` [Example 1-89, 3-((R)-1-((7-(((S)-1-ethylpyrrolidin-3-yl)(methyl)amino)-4-methylpyrido[3,4-d]pyridazin-1-yl)amino)ethyl)-2-methylbenzonitrile] were, in that order, 1.71 nM and 32.6 nM.
For `Cc1nnc(N[C@H](C)c2cccc(C(F)(F)F)c2F)c2cc(N(C)[C@@H]3CCCN(C)C3)ncc12` [Example 1-90, N^1-((R)-1-(2-fluoro-3-(trifluoromethyl)phenyl)ethyl)-N^7,4-dimethyl-N^7-((R)-1-methylpiperidin-3-yl)pyrido[3,4-d]pyridazine-1,7-diamine] the same measures were 0.453 nM and 102 nM.
Take `COCCN(C)c1cc2c(N[C@H](C)c3cccc(C#N)c3C)nnc(C)c2cn1` [Example 1-91, (R)-3-(1-((7-((2-methoxyethyl)(methyl)amino)-4-methylpyrido[3,4-d]pyridazin-1-yl)amino)ethyl)-2-methylbenzonitrile]: in assay [1], the inhibition constant (Ki) amounted to 6.07 nM. Moreover, the IC50 in assay [2] was 225 nM.
On to `Cc1nnc(N[C@H](C)c2cc(N)cc(C(F)(F)F)c2F)c2cc(N3CC(C)(O)C3)ncc12` [Example 1-93, (R)-1-(1-((1-(5-amino-2-fluoro-3-(trifluoromethyl)phenyl)ethyl)amino)-4-methylpyrido[3,4-d]pyridazin-7-yl)-3-methylazetidin-3-ol], for which the Ki in assay [1] was found to be 0.361 nM. In addition, in assay [2], the IC50 stood at 50.5 nM.
Take `Cc1nnc(N[C@H](C)c2cc(N)cc(C(F)(F)F)c2F)c2cc(N3CC4CC(C3)O4)ncc12` [Example 1-94, N-((R)-1-(5-amino-2-fluoro-3-(trifluoromethyl)phenyl)ethyl)-7-(6-oxa-3-azabicyclo[3.1.1]heptan-3-yl)-4-methylpyrido[3,4-d]pyridazin-1-amine]: the Ki in assay [1] was determined as 0.264 nM. Further, the IC50 in assay [2] amounted to 15.4 nM.
The like results for `Cc1nnc(N[C@H](C)c2cc(N)cc(C(F)(F)F)c2F)c2cc(N3CC4CC(C3)O4)ccc12` [Example 1-95, N-((R)-1-(5-amino-2-fluoro-3-(trifluoromethyl)phenyl)ethyl)-7-(6-oxa-3-azabicyclo[3.1.1]heptan-3-yl)-4-methylphthalazin-1-amine] were, in that order, 0.31 nM and 19.8 nM.
Take `Cc1nnc(N[C@H](C)c2ccc(C#N)cc2F)c2cc(N3C[C@H]4C[C@@H]3CO4)ncc12` [Example 1-96, 4-((R)-1-((7-((1R,4R)-2-oxa-5-azabicyclo[2.2.1]heptan-5-yl)-4-methylpyrido[3,4-d]pyridazin-1-yl)amino)ethyl)-3-fluorobenzonitrile]: in assay [1], the Ki amounted to 19.1 nM. Moreover, in assay [2], the IC50 was 255 nM.
The like results for `Cc1nnc(N[C@H](C)c2ccc(C#N)cc2F)c2cc(N3CCN4CCOC[C@@H]4C3)ncc12` [Example 1-97, 3-fluoro-4-((R)-1-((7-((S)-hexahydropyrazino[2,1-c][1,4]oxazin-8(1H)-yl)-4-methylpyrido[3,4-d]pyridazin-1-yl)amino)ethyl)benzonitrile] were, in that order, 17.7 nM and 358 nM.

Broadly, the Ki is the equilibrium dissociation constant of an inhibitor or competing ligand from its target. One may read the IC50 as the concentration that gives 50% inhibition.
